Data taken from patent publication US20200061090A1, “AGENT FOR PREVENTING WORSENING OF INSULIN RESISTANCE OR AMELIORATING INSULIN RESISTANCE” (B FOOD SCIENCE CO., LTD., priority 2017, published 2020).

How the values were obtained:
[1] = tested on: SD rats; experiment: Effect of 1-kestose on rats taking an ordinary diet (healthy model): serum insulin and blood glucose; assay type: in vivo, rat; conditions: for Serum insulin level / Blood glucose level: average ± SD; for Serum insulin level: Group A control 4.34 ± 0.51; for Blood glucose level: Group A control 207 ± 11
Procedure: Feed containing 1-kestose in such a way as to be 0, 0.5, 1, 2.5 and 5 mass % was prepared by CLEA Japan, Inc. on commission. The composition of feed is shown below.
Cornstarch: 39.7486, milk casein: 20, pregelatinized cornstarch: 13.2, granulated sugar or granulated sugar and 1-kestose: 10, purified soybean oil: 7, cellulose powder: 5, mineral mix: 3.5, vitamin mix: 1, L-cystine: 0.3, choline bitartrate: 0.25, tertiary butyl hydroquinone: 0.0014.
Forty SD rats (Japan SLC, Inc.) were divided into 5 groups of 8 rats each to be Groups A to E. Group A and Groups B to E had discretionary intake of feed without 1-kestose and 1-kestose-containing feed, respectively, while bred for 30 days. Breeding conditions included a temperature of 23±1° C., a light period of 12 hours (8:00 to 20:00) and a dark period of 12 hours (20:00 to 8:00).
The obtained serum was measured for an insulin level by ELISA technique and a glucose level by glucose oxidase method, to calculate an average value and a standard deviation by each Group. Additionally, serum insulin levels and blood glucose levels are shown in FIG. 1 and FIG. 2 in bar graphs, respectively.

[2] = tested on: LETO (Long-Evans Tokushima Otsuka) rats; experiment: Effect of 1-kestose on LETO control rats of the type 2 diabetes model: plasma insulin and blood glucose; assay type: in vivo, rat
Procedure: (§1) OLETF (Otsuka Long-Evans Tokushima Fatty) rats (Japan SLC, Inc.), which are model animals with pathological conditions of type 2 diabetes, and LETO (Long-Evans Tokushima Otsuka) rats (Japan SLC, Inc.), which are the controls thereof, were prepared. The LETO rats were divided into 2 groups of 5 rats each to be Group A and Group B. Further, the OLETF rats were divided into 3 groups of 8 rats each to be Group C, Group D, and Group E. During the breeding period, Group A and Group C had discretionary intake of “feed without 1-kestose” described in Example 1 (1), Group B and Group E had discretionary intake of “feed containing 5 mass % of 1-kestose”, and Group D had discretionary intake of “feed containing 1 mass % of 1-kestose”. The rats were bred for 14 days with the same breeding conditions as Example 1 (1)
(§2) For the rats of each Group of this Example 3 (1), plasma insulin levels and blood glucose levels were measured by the method described in Example 1 (2) to calculate an average value and a standard deviation by each Group. Additionally, plasma insulin levels and blood glucose levels are shown in FIG. 6 and FIG. 7 in bar graphs, respectively.

[3] = tested on: OLETF (Otsuka Long-Evans Tokushima Fatty) rats; experiment: Effect of 1-kestose on type 2 diabetes model OLETF rats: plasma insulin and blood glucose; assay type: in vivo, rat; conditions: for Plasma insulin level / Blood glucose level: 14 days, average ± SD; for Plasma insulin level: Group C control 3.36 ± 0.53; for Blood glucose level: Group C control 151 ± 6
Procedure: as §1, §2

[4] = tested on: SD rats; experiment: Effects of 1-kestose on rats taking a high-fat diet (obese model) or ordinary diet: plasma insulin, blood glucose, body weight; assay type: in vivo, rat; conditions: for Plasma insulin level / Blood glucose level: 135 days; for Plasma insulin level / Blood glucose level / Body weight: average ± SD; for Body weight: end of breeding period (19 weeks)
Procedure: SD rats (Japan SLC, Inc.) were divided into 4 groups of 6 to 8 rats each to be Group A to Group D. During the breeding period, Group A and Group C had discretionary intake of tap water. On the other hand, Group B and Group D were allowed to take 1-kestose by providing discretionary intake of a solution in which 1-kestose was dissolved in purified water in such a way as to be 2 mass %. Additionally, Group A and Group B had discretionary intake of […] (Research Diets, Inc.) as an “ordinary diet”, and Group C and Group D had discretionary intake of D12492 (Research Diets, Inc.) as a “high-fat diet”. The rats were bred for 135 days with the same breeding conditions as Example 1 (1) except feed. The composition of feed is shown below.
(§3) Casein: 200, L-cystine: 3, Cornstarch: 506.2, maltodextrin 10: 125, sucrose: 68.8, cellulose BW200: 50, purified soybean oil: 25, lard: 20, mineral mix S10026: 10, dicalcium phosphate: 13, calcium carbonate: 5.5, potassium citrate monohydrate: 16.5, vitamin mix V10001: 10, choline bitartrate: 2, yellow synthetic dye (FD&C Yellow Dye #1): 0.04, blue synthetic dye (FD&C Blue Dye #1): 0.01.
as §3, with “3,” for “3, Cornstarch: 506.2,”, “245,” for “20,”, “2,” for “2, yellow synthetic dye (FD&C Yellow Dye #1): 0.04,”, “0.05.” for “0.01.”
As the average intake amount of water taken by a rat per day was about 22 mL/rat.
The rats of each Group in this Example 2 (1) were measured for body weight every week during the breeding period, and an average value by each Group was calculated and expressed in line graphs. Note that the body weights (g) of each Group at the start of breeding period were 272±5 for Group A, 268±6 for Group B, 272±3 for Group C, and 269±3 for Group D.
Further, plasma insulin levels and blood glucose levels were measured by the method described in Example 1 (2) to calculate an average value and a standard deviation by each Group. […] Additionally, insulin levels and glucose levels are shown in FIG. 4 and FIG. 5 in bar graphs, respectively.

[5] = Food processing and ingredients, Vol. 49, No. 12, p. 9, 2014; cited from earlier work
[6] = Group C, feed containing 1% of 1-kestose (0.54 g/kg body weight daily), 30 days
[7] = Group D, feed containing 2.5% of 1-kestose (1.34 g/kg body weight daily), 30 days
[8] = Group E, feed containing 5% of 1-kestose (2.71 g/kg body weight daily), 30 days
[9] = OLETF rats, Group D, feed containing 1% of 1-kestose (table prints 1.34 g/kg body weight daily)
[10] = OLETF rats, Group E, feed containing 5% of 1-kestose (2.71 g/kg body weight daily)

With `OC[C@H]1O[C@@](CO)(OC[C@@]2(O[C@H]3O[C@H](CO)[C@@H](O)[C@H](O)[C@H]3O)O[C@H](CO)[C@@H](O)[C@@H]2O)[C@@H](O)[C@@H]1O` [1-kestose] the Serum insulin level ([1]; Group B, feed containing 0.5% of 1-kestose (0.27 g/kg body weight daily), 30 days, n=8) was 3.04 ± 0.38 ng/mL, the Blood glucose level ([1]; Group B, feed containing 0.5% of 1-kestose (0.27 g/kg body weight daily), 30 days) was 202 ± 10 mg/dL and the Serum insulin level [1, 6] was 3.08 ± 0.31 ng/mL. The Blood glucose level [1, 6] was 192 ± 11 mg/dL, the Serum insulin level [1, 7] was 2.56 ± 0.31 ng/mL and the Blood glucose level [1, 7] was 202 ± 4 mg/dL. For the same compound, the Serum insulin level [1, 8] was 2.01 ± 0.24 ng/mL, the Blood glucose level [1, 8] was 188 ± 7 mg/dL and the “Blood glucose levels compared with rats not taking 1-kestose” value ([1]; Groups A to E, irrelevant to the intake amount) was “equivalent blood glucose levels”. For the same compound, the “Serum insulin levels compared with Group A (rats not taking 1-kestose)” value ([1]; Groups B, C, D and E (0.5 to 5% 1-kestose in feed) vs Group A, 30 days) was “significantly lower”, the “Plasma insulin levels compared with LETO rats not taking 1-kestose” value ([2]; Group B vs Group A) was “lower plasma insulin levels” and the Plasma insulin level ([2]; LETO rats, Group B, feed containing 5% of 1-kestose (2.71 g/kg body weight daily), 14 days, average ± SD, Group A control 1.49 ± 0.19) was 1.08 ± 0.09 ng/mL. The Blood glucose level ([2]; LETO rats, Group B, feed containing 5% of 1-kestose (2.71 g/kg body weight daily), 14 days, average ± SD, Group A control 146 ± 3) was 144 ± 2 mg/dL, the “Blood glucose levels compared among groups” value ([2]; LETO rats, regardless of whether or not 1-kestose was taken) was “equivalent blood glucose levels” and the “Plasma insulin levels compared with OLETF rats not taking 1-kestose” value ([3]; Group C>Group D>Group E) was “lower plasma insulin levels”. The Plasma insulin level [3, 9] was 3.04 ± 0.69 ng/mL, the Blood glucose level [3, 9] was 163 ± 4 mg/dL and the Plasma insulin level [3, 10] was 2.53 ± 0.29 ng/mL. The Blood glucose level [3, 10] was 157 ± 3 mg/dL, the “Blood glucose levels compared among groups” value ([3]; OLETF rats, regardless of whether or not 1-kestose was taken) was “equivalent blood glucose levels” and the “Blood glucose levels compared among groups” value ([4]; Groups A to D, regardless of whether or not 1-kestose was taken) was “equivalent blood glucose levels”. The “Plasma insulin levels of rats taking the high-fat diet and 1-kestose compared with rats taking the ordinary diet” value ([4]; High-fat diet, Group D vs Groups A and B, Group C notably higher) was “equivalent plasma insulin levels”, the Plasma insulin level ([4]; High-fat diet, Group D, 2 mass % 1-kestose solution (0.44 g/rat daily), Group C tap water 6.65 ± 1.03) was 2.28 ± 0.63 ng/mL and the Blood glucose level ([4]; High-fat diet, Group D, 2 mass % 1-kestose solution (0.44 g/rat daily), Group C tap water 155 ± 4) was 147 ± 2 mg/dL. It also gave a Body weight ([4]; High-fat diet, Group D, 2 mass % 1-kestose solution (0.44 g/rat daily), Group C tap water 764 ± 32) of 718 ± 21 g, a Blood glucose level ([4]; Ordinary diet, Group B, 2 mass % 1-kestose solution (0.44 g/rat daily), Group A tap water 147 ± 5) of 143 ± 3 mg/dL and a Body weight ([4]; Ordinary diet, Group B, 2 mass % 1-kestose solution (0.44 g/rat daily), Group A tap water 665 ± 14) of 679 ± 22 g. The Plasma insulin level ([4]; Ordinary diet, Group B, 2 mass % 1-kestose solution as drinking water (0.44 g/rat daily), Group A tap water 2.48 ± 0.52) was 2.30 ± 0.42 ng/mL and the “Toxicity in mutagenicity test, acute toxicity test, subchronic toxicity test and chronic toxicity test” value [5] was “not recognized to have toxicity”.
